Measured values as given in PubChem BioAssay (NCI).
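Five compound concentrations were applied to cells in 96-well plates for 48 hours; endpoints were derived by simple linear interpolation of the resulting dose-response curve. The concentration for full growth arrest is given as TGI.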

Tests used:
Assay in all cases: DTP human tumour cell line panel, 48 h
786-0 renal = tested on: 786-0 renal
ACHN renal = tested on: ACHN renal
CCRF-CEM leukemia = tested on: CCRF-CEM leukemia
EKVX NSCLC = tested on: EKVX NSCLC
IGROV1 ovarian = tested on: IGROV1 ovarian
MALME-3M melanoma = tested on: MALME-3M melanoma
NCI-H23 lung = tested on: NCI-H23 lung
OVCAR-3 ovarian = tested on: OVCAR-3 ovarian
RXF 393 renal = tested on: RXF 393 renal
SK-MEL-5 melanoma = tested on: SK-MEL-5 melanoma
SN12C renal = tested on: SN12C renal
TK-10 renal = tested on: TK-10 renal
UACC-257 melanoma = tested on: UACC-257 melanoma
UACC-62 melanoma = tested on: UACC-62 melanoma
HCC-2998 colon = tested on: HCC-2998 colon
MDA-MB-435 = tested on: MDA-MB-435
PC-3 prostate = tested on: PC-3 prostate
T-47D breast = tested on: T-47D breast

Row | Compound | TGI (786-0 renal) [µM] | TGI (ACHN renal) [µM] | TGI (CCRF-CEM leukemia) [µM] | TGI (EKVX NSCLC) [µM] | TGI (IGROV1 ovarian) [µM] | TGI (MALME-3M melanoma) [µM] | TGI (NCI-H23 lung) [µM] | TGI (OVCAR-3 ovarian) [µM] | TGI (RXF 393 renal) [µM] | TGI (SK-MEL-5 melanoma) [µM] | TGI (SN12C renal) [µM] | TGI (TK-10 renal) [µM] | TGI (UACC-257 melanoma) [µM] | TGI (UACC-62 melanoma) [µM] | TGI (HCC-2998 colon) [µM] | TGI (MDA-MB-435) [µM] | TGI (PC-3 prostate) [µM] | TGI (T-47D breast) [µM]
1 | CCOc1ccc(OP2(=O)NC(=O)C=C(C)N2)cc1 (stereo not drawn) | > 100 | > 100 | > 100 | > 100 | > 100 | > 100 | > 100 | > 100 | > 100 | > 100 | > 100 | > 100 | > 100 | > 100 |  |  |  | 
2 | CCOC(OCC)(OCC)C(Br)CC (stereo not drawn) | 37.8 | > 100 | > 100 | > 100 | > 100 | > 100 | > 100 | > 100 | > 100 | > 100 | > 100 | > 100 | > 100 | > 100 | > 100 |  |  | 
3 | NC(Cc1cc(I)c(Oc2ccc(O)c(I)c2)c(I)c1)C(=O)O (stereo not drawn) | > 100 | > 100 |  | > 100 | > 100 | > 100 | > 100 | > 100 | > 100 | > 100 | > 100 | > 100 | > 100 | > 100 |  | > 100 | > 100 | > 100
4 | CC(=O)Nc1nc2c(=O)c3ccccc3sc2s1 | > 100 | > 100 | > 100 | > 100 | > 100 |  | > 100 | > 100 | > 100 | > 100 | > 100 | > 100 | > 100 | > 100 |  |  | > 100 | > 100
5 | COC(=O)C(=O)C(C(=O)C(=O)Nc1cccc(OC)c1)c1nc2ccc(Cl)cc2[nH]c1=O (stereo not drawn) | > 100 | > 100 | > 100 | > 100 | > 100 | > 100 | > 100 | > 100 |  | > 100 | > 100 | > 100 | > 100 | > 100 | > 100 | > 100 | > 100 | > 100
6 | Fc1ccc2c(c1)SC1=Nc3sc4cc(F)ccc4[n+]3CN12 | 47.4 | 62.2 |  | 79 | 30.6 | 47.1 | 47.3 | 36 | 86.8 | 28.2 | 51.2 | 42.7 | 92.1 | 33.1 | 47.5 | > 100 | > 100 | 55.4
7 | C[C@H]1CCC/C=C/[C@@H]2C[C@H](OC(=O)CN(C)C)C[C@H]2[C@H](O)/C=C/C(=O)O1 | > 100 | 11.4 | > 100 | 22.2 | > 29.7 | 0.15 | 0.909 | > 26.8 | 0.155 | 0.0944 | 6.45 | 1.93 | 27.8 | 22.1 | 0.235 | > 100 | 8.74 | 
8 | Cc1csc(=Nc2ccccc2)n1CCC(O)(P(=O)(O)O)P(=O)(O)O | > 100 | > 100 |  | > 100 | > 100 | > 100 | > 100 | > 100 | > 100 | > 100 |  | > 100 | > 100 | > 100 | > 100 |  | > 100 | 
9 | CN(CC(=O)Nc1ccccc1C(=O)O)c1ccccc1 | > 100 | > 100 | > 100 | > 100 | > 100 | > 100 | > 100 | > 100 | > 100 | > 100 | > 100 | > 100 | > 100 |  | > 100 |  | > 100 | > 100
10 | Cc1cc(C=O)c2c(=O)c3c(O)ccc(/C=C/C(C)C)c3oc2c1 | > 100 | > 100 |  |  | > 100 | > 100 | > 100 | > 100 |  | > 100 |  | > 100 | > 100 | > 100 | > 100 |  |  | 
11 | CCCCCCC1OC23OC1CCC2C(O)CCC3O (stereo not drawn) | > 100 | > 100 |  | > 100 | > 100 | > 100 | > 100 | > 100 | > 100 | > 100 | > 100 | > 100 | > 100 | > 100 | > 100 | > 100 | > 100 | 
12 | CN1S(=O)(=O)N(C)P12(N=P(CP(=NP13(N(C)S(=O)(=O)N1C)N(C)S(=O)(=O)N3C)(c1ccccc1)c1ccccc1)(c1ccccc1)c1ccccc1)N(C)S(=O)(=O)N2C | > 100 | > 100 | > 100 | > 100 | > 100 | > 100 | > 100 | > 100 | > 100 | > 100 | > 100 | > 100 | > 100 | > 100 | > 100 |  |  | 
13 | CS(=O)(=O)CCC1CCC(=O)O1 (stereo not drawn) | > 100 | 90.4 |  | > 100 | > 100 | > 100 | > 100 | > 100 | > 100 | > 100 | > 100 | > 100 | > 100 |  | > 100 | > 100 | > 100 | > 100
14 | COc1cc2c(cc1OCCCOc1cc3c(cc1OC)C(=O)N1CCC[C@H]1C(=O)N3)N=C[C@@H]1CCCN1C2=O | > 100 | 38.5 |  | 46.4 | 33.4 | 29.8 | 57.4 | 54 | 31 | 26.8 | 61.5 | 84.5 | 50 | 19.5 | 31 | 31.5 | 57 | 77.3
15 | Clc1ccc(C(OCn2ccnc2)c2nc3ccccc3[nH]2)c(Cl)c1 (stereo not drawn) | > 100 | > 100 | > 100 | > 100 | > 100 | > 100 | > 100 | > 100 |  | 35.2 | > 100 | > 100 | > 100 | > 100 | > 100 | > 100 | > 100 | > 100
